{"source": "patent EP3338775B1", "about": "“USE OF BUTYLIDENEPHTHALIDE” (Everfront Biotech Inc., priority 2015, dated 2017)", "type_in_all_cases": "cell-based", "key": {"[1]": {"tested_on": "brain CSCs ^CD133+", "experiment": "MTT cell viability assay on brain CSCs CD133+", "conditions": "24-hour group, MTT assay; read-out: IC50 to brain CSCs ^CD133+", "text": "Thereafter, a cell viability assay, MTT assay, was utilized to analyze the viabilities of brain CSCs ^CD133+ and malignant glioma DBTRG cells. […]"}, "[2]": {"tested_on": "malignant glioma DBTRG cells", "experiment": "MTT cell viability assay on malignant glioma DBTRG cells", "conditions": "24-hour group", "experimental": "Thereafter, a cell viability assay, MTT assay, was utilized to analyze the viabilities of brain CSCs ^CD133+ and malignant glioma DBTRG cells. […] The results are shown in Figure 1A and Figure 1B for 24-hour group and 48-hour group (i.e., the treatment for 24 hours and 48 hours) and in Table 1 for 24-hour group."}, "[3]": {"tested_on": "ALDH", "experiment": "ALDEFLUOR flow cytometry analysis of ALDH activity in HNC-TIC-like oral stem cells", "conditions": "DEAB-added group (150 µM DEAB), with or without BP treatment; Figure 8", "experimental": "ALDH protein is also an important stemness-maintenance marker of cancer stem cells and participates in the regulation of the self-renewal and differentiation of cancer stem cells. HNC-TIC-like oral stem cells (i.e., ALDH1^+CD44^+-1 cell line or ALDH1^+CD44^+-2 cell line) were treated with different concentrations (0, 25 and 50 µg/ml) of BP for 24 hours, and then, 1 ×10^5 cells obtained from each group were separately suspended in 50 µl of a stem cell detection kit (i.e., ALDEFLUOR array kit, purchased from […] Technologies Inc., Vancouver, Canada) buffer and the cell suspension of each group was separately added with ALDEFLUOR to a final concentration of 1 µM. Thereafter, a sample of each group was stained by […] and then analyzed by flow cytometry analysis to determine the ALDH activity of HNC-TIC-like oral stem cells (i.e., ALDH1^+CD44^+-1 cell line and ALDH1^+CD44^+-2 cell line).\nThe above experimental procedure was repeated, but the cell suspension of each group was further added with N,N-diethylaminobenzaldehyde (DEAB, i.e., an inhibitor of ALDH) to a final concentration of 150 µM of DEAB separately."}}, "note": "Values joined by “and” are separate entries in the source; they are usually repeats but may differ in a detail not shown here. Equal entries are not always repeated.", "data": [{"compound": "Cn1nnc2c(C(N)=O)ncn2c1=O", "note": "[TMZ, temozolomide, reference compound]", "values": [{"measurement": "IC50", "setting": "[1]", "result": "> 1.6 mM and > 311 µg/mL"}, {"measurement": "IC50", "setting": "[2]", "result": "1.66 mM and 322 µg/mL"}]}, {"compound": "CCN(CC)c1ccc(C=O)cc1", "note": "[DEAB, N,N-diethylaminobenzaldehyde, reference compound]", "values": [{"measurement": "live cells with ALDH activity, of total live cells", "setting": "[3]", "result": 0.1, "unit": "%"}]}, {"compound": "O=NN(CCCl)C(=O)NCCCl", "note": "[BCNU, bis-chloroethylnitrosourea]", "values": [{"measurement": "IC50", "setting": "[2]", "result": "352 µM and 75.4 µg/mL"}]}]}
